This is an account of results in patent US12291529B2, “Heterocyclic GLP-1 agonists” (Gasherbrum Bio, Inc., priority 2023, dated 2025).

The target of data set [1] is GLP-1 Receptor (Homo sapiens, UniProt P43220). The experiment in a line: GLP-1R agonist cAMP stimulation assay (HEK293/GLP1R/CRE-LUC cells, Cisbio cAMP dynamic 2 kit). Type of data set: cell-based. The method in brief:
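HEK293 cells stably expressing human GLP-1R with CRE-Luc reporter, 1000 cells/well in DPBS with 0.5 mM IBMX and BSA. Cells treated with compound (½-log dilutions) for 30 min at 37 °C. cAMP read by HTRF at 665/615 nm; % activity relative to vehicle and maximal control.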

The nature of data set [2]: Caco-2 permeability / efflux study. It counts as in vitro ADME. The conditions noted are these: human; for efflux ratio at 2 h, 10 μM: Caco-2, pH 7.4, Caco-2 efflux ratio; for Papp at 2 h, 10 μM: Caco-2, pH 7.4, 10 μM, 37° C., pH 7.4, 0.5% BSA, read-out: Caco-2 Perm. As for the experimental part:
(§1) Incubations with Caco-2 cell monolayers were performed in duplicate in a 96-well Transwell plate. Transport buffer solution (HBSS, 10 mM HEPES, pH 7.4, with 0.5% BSA) containing test article (10 μM), and either the control compounds metoprolol (10 μM), cimetidine (10 μM) and erythromycin (10 μM), was added to appropriate donor wells of the apical or basolateral plate. The transport buffer with DMSO was added to appropriate wells of receiver wells. Following incubation at 37° C. for 2 hours, the cell plates were removed and 50 μL samples from both apical and basolateral sides were transferred into new 96-well plates. Subsequently, 200 μL of acetonitrile containing internal standard was added to all samples to precipitate protein prior to analysis by UPLC-MS/MS. Lucifer yellow was used as a marker to confirm the integrity of the cell monolayers after 2 hours incubation.
(In general: Caco-2 monolayers are a common model of the intestinal barrier.)

Data set [3] concerns Caco-2 cell monolayers. Briefly: Caco-2 permeability / efflux study. The conditions noted are these: 10 μM, 2 hours; for Caco-2 Perm: 37° C., pH 7.4, 0.5% BSA. Type of data set: in vitro ADME. As for the experimental part:
as §1

The nature of data set [4]: FaSSIF solubility. It counts as physicochemical. To be noted: FaSSIF buffer; for solubility at 4 h: 25 °C, fassif, thermodynamic from solid. As for the experimental part: Stock solution of test article and control compound (chlorpromazine, astemizole, and phenytoin) were prepared in DMSO at 10 mM. 50 μL each of stock solutions were dried down, followed by reconstitution to 1 mM with FaSSIF buffer in the well. The incubation plate was shaked at 25° C., 1,100 rpm for 4 hours. And then, the samples were filtered by using the vacuum manifold. 10 μL aliquots from each well was transferred to a new 96-well plate and adjust the volume to 80 μL with blank buffer. Using a mixture of H2O and acetonitrile containing internal standard (1:1) to dilute the sample 100-fold, 500-fold and 2,500-fold. The samples are evaluated by LC/MS/MS analysis. All compounds were tested in singlet.

Data set [5] is described as follows: Rat IV/PO PK study, Method A. To be noted: for AUC (ng · h/mL)_free form/dose / AUC / Cmax: PO; for AUC (ng · h/mL)_free form/dose: 5 mpk, free form; for half-life / bioavailability / AUC / Cmax: male, Sprague Dawley, plasma; for half-life: 1 mg/kg, elimination half life (IV); for half-life / bioavailability: Method A; for bioavailability: PO vs IV, read-out: Bioavailablility (% F); for AUC / Cmax: 5 mg/kg, *obtained under method 3A. It counts as in vivo, male Sprague Dawley (SD) rats. As for the experimental part: Pharmacokinetics (PK) study was conducted on male Sprague Dawley (SD) rats by two delivery routes intravenous (IV) and/or oral gavage (PO). Rats in IV route (n=3) were free access to food and water. Rats in PO route (n=3) were fasted overnight and fed at 4 hrs post dosing. Test article was formulated in solution (10% solutol HS 15 in saline) for IV route and solution or suspension (10% solutol HS 15 in saline/water) for PO route, respectively. On the day of experiment, test article was administered via vein (e.g. foot dorsal vein) injection (commonly at 1 mg/kg and 5 mL/kg) for IV route or via oral gavage (commonly at 2 or 5 mg/kg and 5 mL/kg) for PO route, respectively. Blood samples were collected via serial bleeding at ˜8 time points from 0.083 to 24 hrs post dose. Approximate 150 μL of blood/time point was collected into K2EDTA tube via tail vein or jugular vein. Blood samples were put on wet ice and centrifuged to obtain plasma samples and plasma samples were submitted to LC-MS/MS for sample analysis. Pharmacokinetics parameters, including elimination half life (t1/2) (IV), area under the curve (AUC) and oral bioavailability (F %), etc. were calculated by non-compartmental model using WinNonlin.

The nature of data set [6]: Rat PO PK study, Method B. It counts as in vivo, male Sprague Dawley (SD) rats. To be noted: for rat PK exposure compared with C-5 and C-6: 5 to 100 mg/kg; for rat PK dose proportionality of exposure: free form, same formulation; for AUC / Cmax: male, Sprague Dawley, plasma. As for the experimental part: Pharmacokinetics (PK) study was conducted on male Sprague Dawley (SD) rats by oral gavage (PO). Rats in PO route (n=3) were free access to food and water. […] On the day of experiment, test article was administered via oral gavage (commonly at 10, 30, or 100 mg/kg, with dose volume as 10 mL/kg). Blood samples were collected via serial bleeding at ˜8 time points from 0.25 to 24 hrs post dose. Approximate 150 μL of blood/time point was collected into KzEDTA tube via tail vein or jugular vein. Blood samples were put on wet ice and centrifuged to obtain plasma samples and plasma samples were submitted to LC-MS/MS for sample analysis. Pharmiacokinetics parameters, including Cmax, and area under the curve (AUC), etc. were calculated by non-compartmental model using WinNonlin.

[7] abbreviates: Table 3, HEK293/GLP1R/CRE-LUC cells, 30 min.
Setting [8] is: 30 mg/kg, 20% solutol HS 15 in water.
Where [9] appears, read: 100 mg/kg, 20% solutol HS 15 in water.

Values after ≈ are worked out from the molar mass of the structure shown.

One may read the EC50 as the concentration needed to bring the measured effect to its halfway point. A higher EC50 goes with a need for much substance. A word on the efflux ratio: it is a quotient of directional permeabilities that is used to spot active efflux. In general, solubility refers to the dissolved amount per volume that the medium holds. High values mean a readily soluble substance, low ones a poorly soluble substance. For orientation: half-life means the time in which the quantity being followed falls by half. For orientation: AUC means the area under the concentration-time curve, a measure of exposure. Low readings indicate low exposure, high ones high exposure. What is called Cmax is the peak of the concentration-time curve.

Chain of GLP-1 Receptor (P43220 24-463, species assumed): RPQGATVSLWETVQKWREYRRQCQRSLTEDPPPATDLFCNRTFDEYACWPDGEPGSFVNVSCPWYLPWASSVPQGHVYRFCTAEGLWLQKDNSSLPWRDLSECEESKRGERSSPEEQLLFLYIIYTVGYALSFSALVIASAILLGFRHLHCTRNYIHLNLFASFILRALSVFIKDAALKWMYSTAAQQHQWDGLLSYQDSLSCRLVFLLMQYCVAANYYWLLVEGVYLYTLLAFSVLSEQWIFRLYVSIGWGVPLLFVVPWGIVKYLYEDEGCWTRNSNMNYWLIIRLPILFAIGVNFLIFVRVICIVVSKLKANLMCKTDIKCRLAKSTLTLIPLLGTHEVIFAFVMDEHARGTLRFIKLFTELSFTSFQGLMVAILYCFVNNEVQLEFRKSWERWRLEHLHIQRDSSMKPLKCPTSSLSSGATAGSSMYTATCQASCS

On to `Cc1cc(-n2nc3c(c2-n2ccn(-c4ccc(S5(=O)=NCCC5)cc4)c2=O)[C@H](C)N(C(=O)c2cc4cc(C5CCOCC5)ccc4n2[C@@]2(c4noc(=O)[nH]4)C[C@@H]2C)CC3)cc(C)c1F` (single isomer, unassigned) [Compound 142], for which the EC50 in data set [1] (setting [7]) was 0.045 nM; in data set [1] (Table 4) it was 0.063 nM. Also, the efflux ratio at 2 h, 10 μM in data set [2] is greater than 156. Besides, in data set [3], the “Caco-2 Perm” value was less than 0.05 ×10⁻⁶ cm/s. In data set [4], the solubility at 4 h was found to be 8.07 µM (≈ 7.15 µg/mL).
`Cc1cc(-n2nc3c(c2-n2ccn(-c4ccc(S5(=O)=NCCC5)cc4)c2=O)[C@H](C)N(C(=O)c2cc4cc(C5CCOCC5)ccc4n2[C@@]2(c4noc(=O)[nH]4)C[C@@H]2C)CC3)cc(C)c1F` (single isomer, unassigned) [Compound 143]: the EC50 in data set [1] (setting [7]) and in data set [1] (Table 4) was 0.019 nM in each case. The “Caco-2 Perm” value in data set [3] was determined as 0.12 ×10⁻⁶ cm/s. Also, in data set [3] (Caco-2 efflux ratio), the Efflux is reported as 99.3. The “Solubility (FaSSIF, μM)” value in data set [4] (25° C., 4 hours) was determined as 4.98 µM (≈ 4.41 µg/mL).
With `CN=S(=O)(c1ccc(-n2ccn(-c3c4c(nn3-c3cc(C)c(F)c(C)c3)CCN(C(=O)c3cc5cc([C@H]6CCOC(C)(C)C6)ccc5n3[C@@]3(c5noc(=O)[nH]5)C[C@@H]3C)[C@H]4C)c2=O)c(F)c1)C1CC1` (single isomer, unassigned) [Compound 180], the EC50 in data set [1] (setting [7]) is 0.034 nM. Moreover, the EC50 in data set [1] (Table 4) is 0.03 nM. In data set [2], the Papp at 2 h, 10 μM was determined as 0.61 ×10⁻⁶ cm/s and the efflux ratio at 2 h, 10 μM came out at 5.4. This compound showed a solubility at 4 h in data set [4] of 30 µM (≈ 28.4 µg/mL). Moreover, in data set [5], the “AUC (ng · h/mL)_free form/dose” value was 4,954/5 mpk ng · h/mL, the half-life is 3 h, the bioavailability is 28% and the AUC worked out at 6100 ng·h/mL. Besides, the peak concentration (Cmax) in data set [5] was determined as 1790 ng/mL. Also, in data set [6], the “rat PK exposure compared with C-5 and C-6” value is “higher exposure than C-5 and C-6”; the “rat PK dose proportionality of exposure” value is “good rat PK dose proportionality from 5 to 100 mg/kg”. In data set [6] (30 mg/kg, 10% solutol HS 15), the area under the curve (AUC) turned out to be 97000 ng·h/mL and the Cmax came out at 8340 ng/mL. In data set [6] (100 mg/kg, 10% solutol HS 15), this compound yielded an area under the curve (AUC) of 167000 ng·h/mL and a peak concentration (Cmax) of 13300 ng/mL.
For the compound `CN=S(=O)(c1ccc(-n2ccn(-c3c4c(nn3-c3cc(C)c(F)c(C)c3)CCN(C(=O)c3cc5cc([C@H]6CCOC(C)(C)C6)ccc5n3[C@@]3(c5noc(=O)[nH]5)C[C@@H]3C)[C@H]4C)c2=O)c(F)c1C)C1CC1` (single isomer, unassigned) [Compound 195], the half-maximal effective concentration (EC50) in data set [1] (setting [7]) is 0.018 nM. The 50% effective concentration (EC50) in data set [1] (Table 4) worked out at 0.018 nM. Further, in data set [2], the Papp at 2 h, 10 μM turned out to be 0.22 ×10⁻⁶ cm/s and the efflux ratio at 2 h, 10 μM came to 12. In data set [4], this compound displayed a solubility at 4 h of 7.2 µM (≈ 6.91 µg/mL). In addition, in data set [5], the “AUC (ng · h/mL)_free form/dose” value is on record as 9,545/5 mpk ng · h/mL, the half-life is 4.3 h, the bioavailability came out at 14% and the exposure (AUC) amounted to 5000 ng·h/mL. Moreover, in data set [5], the Cmax is 774 ng/mL. In data set [6], the “rat PK exposure compared with C-5 and C-6” value was “higher exposure than C-5 and C-6”; the “rat PK dose proportionality of exposure” value is given as “good rat PK dose proportionality from 5 to 100 mg/kg”. Also, in data set [6] (30 mg/kg, 10% solutol HS 15), the area under the curve (AUC) is 51100 ng·h/mL and the Cmax amounted to 3910 ng/mL. In data set [6] (100 mg/kg, 10% solutol HS 15), this compound returned an exposure (AUC) of 102000 ng·h/mL and a maximum concentration (Cmax) of 7690 ng/mL.
In turn, `CN=S(=O)(c1ccc(-n2ccn(-c3c4c(nn3-c3cc(C)c(F)c(C)c3)CCN(C(=O)c3cc5cc([C@H]6CCOC(C)(C)C6)ccc5n3[C@@]3(c5noc(=O)[nH]5)C[C@@H]3C)[C@H]4C)c2=O)c(F)c1NC)C1CC1` (single isomer, unassigned) [Compound 238] came in with a concentration giving a half-maximal response (EC50) in data set [1] (setting [7]) of 0.11 nM. For the same compound, in data set [1] (Table 4), the midpoint of the response, the EC50, lay at 0.11 nM. In addition, in data set [2], the Papp at 2 h, 10 μM amounted to 0.19 ×10⁻⁶ cm/s and the efflux ratio at 2 h, 10 μM was found to be 9.8. Besides, the solubility at 4 h in data set [4] was 26 µM (≈ 25.4 µg/mL). For the same compound, in data set [5], the “AUC (ng · h/mL)_free form/dose” value was 4,997/5 mpk ng · h/mL, the half-life was 4.78 h, the bioavailability stood at 25.5% and the AUC came to 7430 ng·h/mL. In data set [5], this compound returned a Cmax of 1060 ng/mL. In data set [6], the “rat PK exposure compared with C-5 and C-6” value was “higher exposure than C-5 and C-6”; the “rat PK dose proportionality of exposure” value is “good rat PK dose proportionality from 5 to 100 mg/kg”. Moreover, in data set [6] (setting [8]), the exposure (AUC) amounted to 67500 ng·h/mL and the Cmax amounted to 4710 ng/mL. In data set [6] (setting [9]), this compound registered an exposure (AUC) of 124000 ng·h/mL and a maximum concentration (Cmax) of 8680 ng/mL.
As for `Cc1cc(-n2nc3c(c2-n2ccn(-c4ccc5c(cnn5C)c4F)c2=O)[C@H](C)N(C(=O)c2cc4cc([C@H]5CCOC(C)(C)C5)ccn4c2C2(c4noc(=O)[nH]4)CC2)CC3)cc(C2CC2)c1F` [Compound C-6, reference compound], the EC50 in data set [1] (Table 4) came out at 0.0675 nM. In data set [2], the Papp at 2 h, 10 μM was 0.16 ×10⁻⁶ cm/s and the efflux ratio at 2 h, 10 μM is 26. The compound further had a solubility at 4 h in data set [4] of 4.5 µM (≈ 4.03 µg/mL). Also, in data set [5], the “AUC (ng · h/mL)_free form/dose” value is 4,276/5 mpk ng · h/mL, the half-life was 3.1 h, the bioavailability stood at 47% and the area under the curve (AUC) stood at 4280 ng·h/mL. The compound also yielded a Cmax in data set [5] of 744 ng/mL. Further, in data set [6] (30 mg/kg, 10% solutol HS 15), the area under the curve (AUC) was 58800 ng·h/mL and the highest concentration (Cmax) amounted to 7540 ng/mL. In data set [6] (100 mg/kg, 10% solutol HS 15), this compound had an exposure (AUC) of 86000 ng·h/mL and a Cmax of 7480 ng/mL.
